Experiments:
[1] = tested on: eye (conjunctiva) of albino rabbits; assay: Eye irritation test; type: in vivo, rabbit; conditions: 1-10 scale
Text: (§1) Only very mild irritation (score 2 on a 1-10 scale) was observed.

[2] = In vitro water binding capacity, stratum corneum pieces, 24 hours at 85% relative humidity; design: species or system human; conditions: after 24 hours, mean, pentane-1,5-diol 20%, urea 10%, control water content subtracted
Protocol: Pieces of stratum corneum from the sole of 7 healthy volunteers were used. […] The specimens were removed after 24 hours for weighing. […] The water binding capacity was estimated by subtracting the WC for stratum corneum incubated with distilled water for 24 hours from the WC for the stratum corneum pieces incubated with the test substances for 24 hours. […] While the latter composition does give rise to itching when applied to eczematous skin, this negative effect is not encountered with the composition according to the invention.

[3] = tested on: shaved skin of albino rabbits; assay: Skin irritation test; type: in vivo, rabbit; conditions: scale 1 (no irritation) to 10 (maximum irritation); 24 hours exposure
Text: as §1

[4] = In vitro water binding capacity, stratum corneum pieces, 6 hrs at 85% relative humidity; conditions: for Water binding capacity after 6 hrs: aqueous 10% by weight solution; for Uptake of water after 6 hrs / Uptake of water after 6 hrs %: pre-incubated with 10% (by weight) solution, relative humidity 85%, room temperature
[5] = aqueous solution containing 20% of pentane-1,5-diol

Compound | Eye irritation score [1] | Water binding capacity [2] | Water binding capacity ([2]; listed as Pentane-1,5-diol) | Skin irritation score [3] | Water binding capacity after 6 hrs [4] | Water binding capacity [4, 5] | Water content [4, 5] | Uptake of water after 6 hrs [4] | Uptake of water after 6 hrs % [4] | Water binding capacity ([2]; listed as Urea)
OCCCCCO [pentane-1,5-diol] | 2 | 23% | 23% | 1 | 9 % by weight | 13 % by weight | 24% | 0.0075 mg | 20% | 
CC(O)CO (centres unmarked) [propane-1,2-diol] |  |  |  |  | 7 % by weight |  |  | 0.0032 mg | 18% | 
NC(N)=O [urea] |  | 16% |  |  | 17 % by weight |  |  | 0.0109 mg | 28% | 16%
